Measurements: PubChem BioAssay AID1996
In brackets after ≈: the same amount, converted by molar mass.

Conditions: buffer; pH 7.4; 200.0 µM

SMILES | solubility kinetic [µg/mL]
COc1ccc(NC(=O)c2cc(=O)c3ccccc3o2)cc1Cl | < 0.7
O=C1OC(c2ccc(F)cc2)=N/C1=C\c1ccc(Br)o1 | 9.6 (≈ 28.6 µM)
COc1ccccc1N(C)S(=O)(=O)c1ccc(C(=O)Nc2cccc(Br)c2)cc1 | 3 (≈ 6.31 µM)
O=Cc1cn(CC(=O)Nc2ccc3c(c2)OCO3)c2ccccc12 | 0.4 (≈ 1.24 µM)
COc1ccccc1CCN=C(N)NS(=O)(=O)c1ccc(C)c(C)c1 | 8.3 (≈ 23 µM)
O=C1CCc2cc(S(=O)(=O)Nc3ccccc3Cl)ccc2N1 | > 50.5
O=C(/C=C/c1ccco1)N1CCc2ccccc21 | 31.4 (≈ 131 µM)
Cc1ccc(CC(=O)Nc2nccs2)cc1C | 3.3 (≈ 13.4 µM)
CCOP(=O)(c1ccccc1)C1(C#N)CC1 (centres undefined) | 23 (≈ 97.8 µM)
CC1CN(S(=O)(=O)c2ccc(C(=O)N(C)C3CCCCC3)cc2)CC(C)O1 (centres undefined) | > 59.2
Cc1ccc(C(CC(=O)O)NC(=O)CCNC(=O)c2ccco2)cc1 (centres undefined) | > 51.7
CC(C)CC1NC(=O)N(CC(=O)N(C)C2CCCCC2)C1=O (centres undefined) | > 46.4
COc1cc(SC)ccc1C(=O)NCCCn1ccnc1 | > 45.8
O=C(Cc1ccc([N+](=O)[O-])cc1)N1CCN(c2ccc([N+](=O)[O-])cc2)CC1 | 5.2 (≈ 14 µM)
O=C(NC(=S)N1CCN(c2ccccc2)CC1)c1ccccc1 | 6.4 (≈ 19.7 µM)
Cc1cnc(C(=O)OCC(=O)N(Cc2ccccc2)C(C)(C)C)cn1 | > 51.2
S=C(Nc1ccccc1Cl)NC1CCCCCC1 | 22 (≈ 77.8 µM)
COc1cccc(-c2noc(CCCC(=O)N3CCOCC3)n2)c1 | > 49.7
CCN(CC(=O)Nc1ccc2c(c1)OCCO2)CC(=O)Nc1ccc(C)c(S(=O)(=O)N(C)C)c1 | 35.3 (≈ 72 µM)
Cc1ccc(C)c(C(=O)COC(=O)Cn2c(C)csc2=O)c1 | > 47.9

SMILES | solubility kinetic [µg/mL]
S=C(NCc1ccco1)N1CCN(c2ccccc2Cl)CC1 | 19.5 (≈ 58.1 µM)
CC(OC(=O)c1cc2sccc2n1C)C(=O)NC(C)(C)C (centres undefined) | > 46.3
COCCNC(=O)c1cc2cc(Br)cc(Br)c2oc1=O | 1.6 (≈ 3.95 µM)
CC(Oc1ccc(Cl)cc1)C(=O)N1CCCc2ccccc21 (centres undefined) | 2.1 (≈ 6.65 µM)
O=C(CN1CCN(Cc2ccccc2Cl)CC1)N/N=C/c1ccccn1 | > 55.8
N#Cc1ccc(C(=O)NCCCSc2ccccc2)cc1 | 6.4 (≈ 21.6 µM)
Cn1cnnc1SCC(=O)Nc1ccccc1F | > 39.9
CC(=O)c1c(C)[nH]c(C(=O)Nc2ccc(F)cc2F)c1C | 20.6 (≈ 70.5 µM)
Cn1c(COc2ccc([N+](=O)[O-])cc2)nnc1SCC(N)=O | > 48.5
Nc1ccc(-c2ccc(N)c(C(=O)O)c2)cc1C(=O)O | > 40.8
CCOC(=O)c1cn(CC#N)c2cc(F)c(F)cc2c1=O | > 43.8
COc1ccc(C2C(C(C)=O)=C(C)Nc3ncnn32)c(OC)c1OC (centres undefined) | > 51.7
COc1ccc2cc(S(=O)(=O)N3CCCC3)ccc2c1 | 3.5 (≈ 12 µM)
O=C(OCc1cc(=O)n2ccsc2n1)c1ccccc1O | 22.5 (≈ 74.4 µM)
C=CCNC(=S)/N=c1/ccccn1CCC | 35.1 (≈ 149 µM)
O=C(NCc1ccccn1)Nc1ccc(Br)cc1 | 14.9 (≈ 48.7 µM)
COc1ccc(NS(=O)(=O)c2ccc3c(c2)CCO3)cc1 | 45 (≈ 147 µM)
CCNC(=O)[C@H]1O[C@@H](n2cnc3c(N)ncnc32)[C@H](O)[C@@H]1O | > 46.2
C/C(=C\C(=O)Nc1cscc1C)C(=O)O | 28.2 (≈ 125 µM)
COCCn1c(=S)[nH]c2sc3c(c2c1=O)CCC(C)C3 (centres undefined) | 40.4 (≈ 130 µM)

SMILES | solubility kinetic [µg/mL]
O=C(COc1ccc2ccc(=O)oc2c1)Nc1cccnc1 | 14.2 (≈ 47.9 µM)
Nc1cccnc1Oc1ccccc1F | > 30.6
CNc1ccc(OC)cc1-n1cnc(-c2ccc([N+](=O)[O-])cc2)c1 | 0.6 (≈ 1.85 µM)
Nc1c2c(nc3sc4c(c13)CCCC4)-c1ccccc1CC2 | < 0.3
Cc1cc(SCc2ccc([N+](=O)[O-])cc2)nc(=O)[nH]1 | 24.2 (≈ 87.3 µM)
COc1ccc(-c2noc(CN(C)C(=O)c3ccoc3C)n2)cc1OC | 43.3 (≈ 121 µM)
O=C(CCCCl)Nc1nc(-c2ccc3c(c2)OCCO3)cs1 | 1.1 (≈ 3.25 µM)
COc1cc2ccccc2cc1C(=O)N1CC(C)CC(C)C1 (centres undefined) | > 44.6
Cc1cccc(N2CCN(Cc3nc(C4CC4)no3)CC2)n1 | 37.8 (≈ 126 µM)
CC(=O)c1ccc(-n2c(CCC(=O)O)ccc2-c2ccccc2)cc1 | 41.5 (≈ 124 µM)
COc1cccc(NC(=O)[C@@H]2CCC(=O)N2C2OC(=O)c3ccccc32)c1 (some centres undefined) | > 55
CC(C)Oc1ccccc1/C=N/NC(=O)C1CC1 | > 36.9
CC(C)(C)c1csc(NC(=O)CS(=O)(=O)c2ccccc2)n1 | 50.6 (≈ 150 µM)
COCCn1c(SCC(=O)Nc2ccc3[nH]c(=O)[nH]c3c2)nc2ccccc21 | 19.4 (≈ 48.8 µM)
CC1CCCC(NC(=O)COC(=O)CCC(=O)c2cccs2)C1C (centres undefined) | > 52.7
O=C1NCCSC1c1ccccc1 (centres undefined) | > 29
Cc1nc2ccccc2n1C1CCN(C(=O)Nc2ccccc2)CC1 | > 50.2
CS(=O)(=O)Nc1cc2c3c(c1)CCC(=O)N3CCC2 | 39.9 (≈ 142 µM)
O=C(Nc1ccccc1Cl)c1cc(=O)c2ccccc2o1 | 0.7 (≈ 2.34 µM)
